According to patent publication US20030175365A1, “Natural drug induced differentiation cancer cells to resemble normal cells” (priority 2002, published 2003):
Marks after values point to notes of the source that are not given here.

Legend:
[1] = tested on: Human leukemia cells (HL-60); assay: Apoptosis of cancer cells; format: cell-based; conditions: drug concentration 20 μm
Procedure: Human leukemia cells (HL-60) were grown in RPMI Medium 1640 supplemented with 10% (v/v) heat-inactivated FBS (56° C. for 30 min) at 37° C. in a humidified 95% air/5% CO2 atmosphere. Cells were seeded at a level of 2×10^5 cells/ml. Cells were allowed to attain a maximum density of 1.2×10^6 cells/ml before being passed by dilution into fresh medium to a concentration of 2×10^5 cells/ml.
Apoptosis Determined by two Methods:
Method (1): Cell pellets containing 5×10^6 cells were fixed with 2.5% glutaraldehyde in cacodylate buffer (pH 7.4), dehydrated through graded alcohol, and infiltrated with LX-112 epoxy resin. After overnight polymerization at 60°C. […]
DNA electrophoresis: Untreated and treated HL-60 cells collected by centrifugation, washed in phosphate buffered saline and re-suspended at a concentration of 5×10^6 cells and 0.1% RNase A. The mixture was incubated at 37° C. for 30 min and then incubated for an additional 30 min at 37° C. with 1 ml protease K. Buffer was added and 25 μl of the tube content transferred to the Horizontal 1.5% agarose gel electrophoresis was performed at 2 V/cm. […] DNA fragmentation assays: DNA cleavage was performed, quantitation of fractional solubilized DNA by diphenylamine assay and the percentage of cells harboring fragmented DNA determined by in labeling techniques. […] DNA was precipitated with 0.5 N perchloric acid and quantitated using diphenylamine reagent. […]

[2] = tested on: HL-60; assay: Tumor cell proliferation inhibition, HL-60; format: cell-based, Human; conditions: 1 μg/ml drug, 72 hours
Procedure: (§1) Human tumor cell lines: Hela leukemia HL-60, malignant melanocarcinoma B16, oral epidermoid carcinoma (KB), lung carcinoma (A549), breast carcinoma MCF-7, adenocarcinoma of stomach.
(§2) Animal tumor cell lines: Walker carcinoma, LLC-WRC-256, malignant melanoma (RMMI 1846), 3T3,and S-180 sarcoma (CCRF-180). All lines were routinely cultured in the RPMI1640 medium supplemented 20% fetal calf serum. The experiment was carried out in 96 microplate, each well had […] and given desired concentration of 1 μg/ml (1 x 10^−6 g/ml) drug. Then the plate was incubated at 37° C. in an atmosphere of humidified air enriched with 5 percent carbon dioxide for 72 hours.
(§3) Inhibition percent rate of tumor cell proliferation was obtained according to the bellow formula. [formula]

[3] = tested on: tumor suppressor p^17; assay: p17 allelic loss by PCR-SSCP; format: cell-based
Procedure: (§4) The p^17 is a tumor suppressor. The gastric cancer cells were used in this experiment. Gastric cancer cells and normal cells were cultured in RPMI 1640 medium supplement with 10% fetal bovine serum. All the exons of tumor suppressor p^17 were amplified by the polymease chain reaction (PCR) using specific oligonucleotide primers. The PCR products were subjected to single-strand conformation polymorphism (SSCP) analysis. A second PCR-SSCP analysis was performed. Levels of DNA methylation were determined.

[4] = tested on: oral epidermoid carcinoma (KB); assay: Tumor cell proliferation inhibition, KB; format: cell-based, Human; conditions: 1 μg/ml drug, 72 hours
Procedure: as §1, §2, §3

[5] = tested on: malignant melanocarcinoma B16; assay: Tumor cell proliferation inhibition, B16; format: cell-based, Mouse; conditions: 1 μg/ml drug, 72 hours
Procedure: as §1, §2, §3

[6] = tested on: HL-60 cells; assay: Induction of differentiation of human leukemic cells (NBT reduction, NSE staining); format: cell-based; conditions: Leukemic cells + HHT; P < 0.001 vs leukemic cells
Procedure: Cell Lines. HL-60 cells were established from a patient with acute myeloid leukemia. The cells were cultured in culture flasks with RPMI plus 10% FCS.
Studies of Induction of Differentiation. Differentiation of HL-60 cells was assessed by their abilities to produced superoxide as measured by reduction of NBT, by NSE staining and by morphology as detected on cytospin preparations stained with Diff-Quick stain Set, and by analysis of membrane-bound differentiation markers with two-color immunofluorescence. Briefly, cells were preincubated at 4° C. for 60 min in 10% human AB serum and then with FITC-conjugated mouse IgGI isotype control. Analysis of fluorescence was performed on a flow cytometer.

[7] = tested on: dogs; assay: Toxic doses for dogs; format: in vivo; conditions: ×7
Procedure: (§5) Toxic doses for dogs: 0.16 mg/kg/day×7 of HHT was established as the toxic doses. Toxic doses for mice: In 38 normal mice after injection of HHT of 2 mg/kg/day×5 with the observation period of 5 days about 50% of the mice died.

[8] = tested on: Epidermis cancer cells; assay: Differentiation of epidermis cancer cells (NBT, NSE); format: cell-based, mouse; conditions: Epidermis cancer cells + HHT; P < 0.001
[9] = tested on: normal mice; assay: Toxic doses for mice (repeated injection); format: in vivo; conditions: 38 normal mice, injection of 2 mg/kg/day×5, observation period of 5 days
Procedure: as §5

[10] = tested on: gastric cancer cells; assay: Differentiation of gastric cancer cells (NBT, NSE); format: cell-based; conditions: Gastric cancer cells + HHT; P < 0.001
Procedure: The gastric cancer cells and normal cells were cultured in PRMI 1640 medium supplement with 10% FCS serum. Other method is similar to example 1.

[11] = tested on: TPA-stimulated mouse epidermis; assay: [3H] thymidine incorporation (DNA synthesis) in TPA-stimulated mouse epidermis; format: in vivo; conditions: TPA-treated mice
Procedure: It is known that tetradecanoyphorbol-13-acetate (TPA) is strong tumor promoter and TPA can remarkable increase [^3H] thymidine incorporation in mouse epidermis and then to induce Epidermis cancer.
ice were treated with TPA and the rate of [^3H] thymidine incorporation was determined 20 hours later. Male mice (7-9 weeks old) used for experiments. Only mice showing no hair regrowth following shaving were used. Animals were injected intraperitoneally (i.p.) with TPA or 95% saline. After 20 hours, mice were injected i.p. with 60 μCi of [^3H] thymidine (2 Ci/mmol) 20 minutes before sacrifice. Epidermal scrapings were prepared. Epidermis cancer cells were cultured in condition of example 1.

[12] = tested on: Neuroblastoma tumor cells, melanocytic and epithelial cells; assay: Apoptosis with HHT and APO-2L (filter binding assay); format: cell-based
Procedure: (§6) Neuroblastoma tumor cells, melanocytic and epithelial cells used in this experiment. Cells were grown routinely as monolayers in a 1:1 mixture of Eagle's minimum essential medium and Ham's nutrient mixture F-12 supplemented with 15% heat-inactivated fetal calf serum. Cells were used over a maximum of 15 passages to minimize intersubline differentiation.
Cytotoxicity Assays. Etoposide sensitivity was measured by clonogenic assay. Five hundred cells were plated per 2-cm^2 dish. Cells were treated for 1 hour with HHT or medium. Results are the mean ±S.E. of three independent experiments and duplicate plates were used in each individual experiment. Apoptosis was quantified by the filter binding assay.

[13] = tested on: c-myc RNA; assay: Oncogene expression by northern blot in ML-1 cells: c-myc; format: cell-based, Human
Procedure: (§7) Human myeloblastic leukemic cells (ML-1) were maintained in suspension culture in RPMI 1640 medium supplemented with 7.5% heat-inactivated FBS. Cells growth and viability were assayed by hemocytometer using trypan-blue dye exclusion.
(§8) RNA was isolated by the CsCl gradient modification. RNA pellets were washed twice by reprecipitation in ethanol and quantitated by absorbency at […]. RNA analyzed by electrophoresis of 15 μg of RNA through 1.2% agarose formaldehyde gels followed by northern blot transfer to nitrocellulose.
(§9) Single-standard uniformly labeled DNA probes were prepared. Probe of c-myc was a 1.7 Kb cla-Eco RI restriction fragment containing the 3′exon region of human c-myc and probe of c-myb was 1.0 Kb myb-specific Bam HI fragment. Probes for n-ras contained DNA fragments using a modification of the PCR technique. Probes for myb, myc and n-ras were isolated. The isolated fragments were labeled to high specific activity with […] (3000 ci/mmol). Prehybridization of the filter was performed. The hybridization mixer contained 50,000 cpm of probe. The probes were hybridized at 58° C. in 15 mM NaCl, […] sodium citrate for 3 hours. After hybridization, they were exposed to XAR-5 film. Oncogene expression was quantitated by densitometer scanning of the autoradiography.

[14] = tested on: tumor suppressor p^53; assay: p53 mutations by PCR-SSCP; format: cell-based
Procedure: as §4, with “leukemic” for “p^17 is a tumor suppressor. The gastric cancer cells were used in this experiment. Gastric”, “the p^53” for “tumor suppressor p^17”, “A second PCR-SSCP analysis was performed.” left out

[15] = tested on: c-myb RNA; assay: Oncogene expression by northern blot in ML-1 cells: c-myb; format: cell-based, Human
Procedure: as §7, §8, §9

[16] = tested on: caspase-3; assay: Determination of caspase activation (Ac-DEVD-AMC substrate, cell lysate); format: cell-based; conditions: control 25.4 ± 3.0
Procedure: as §6
Determination of Caspase Activation. The substrate used was Ac-DEVD-AMC, which was made to 5 mM stock in dimethylformamide. On the day of the assay, substrate stock was diluted in water to 500 μM and kept on ice. Cell lysate (20 μg) was diluted to equal volumes (20 μl) in Nonidet-P40 lysis buffer and 1/10th of the volume of substrate was added. Exactly 10 min later, the reaction was stopped by adding the mix into 2 ml of water. Fluorescence was read on a fluorometer at an excitation wavelength of 380 nm and emission wavelength of 460 nm.

[17] = tested on: tumor suppressor p^16; assay: Methylation of tumor suppressor p16 (PCR-based) in bladder cell lines; conditions: Cancer cells treated by HHT (no treatment: 81.5; normal: 15.8)
From the text: Bladder cell lines were used. Methods of RT-PCR were regular. PCR-based methylation determined by inability of some restriction enzymes to cut methylated sequences methods of determination was used to analyze the methylaton status of the p^16 and p^15 . PCR products were resolved on 2% agarose gels transferred to a nylon membrane and hydridized for the RT-PCR products. An undigested DNA control and MSPI-digested DNA control were examined.

[18] = tested on: mice; assay: LD50 in mice; format: in vivo; conditions: I.P.
Procedure: as §5

[19] = tested on: Hela; assay: Tumor cell proliferation inhibition, Hela; format: cell-based, Human; conditions: 1 μg/ml drug, 72 hours
Procedure: as §1, §2, §3

[20] = tested on: breast carcinoma MCF-7; assay: Tumor cell proliferation inhibition, MCF-7; format: cell-based, Human; conditions: 1 μg/ml drug, 72 hours
Procedure: as §1, §2, §3

## COC(=O)C[C@](O)(CCCC(C)(C)O)C(=O)O[C@@H]1C(OC)=C[C@]23CCCN2CCc2cc4c(cc2[C@H]13)OCO4 [HHT, homoharringtonine]
[1]
  Apoptosis (%): 68.3 ± 7.6%
[2]
  Inhibition (%): 80.8 ± 9.0%
[3]; Leukemic cancer cells treated by HHT (untreated: 40)
  Frequency of p^17 allelic loss (%): 5%
[3]; p^17 allelic loss, Leukemic cancer cells treated by HHT
  Inhibition T/C (%): 12.5 ± 1.2%
[4]
  Inhibition (%): 80.0 ± 8.5%
[5]
  Inhibition (%): 73.8 ± 8.1%
[6]
  NBT (%): 65* %
  NSE (%): 62* %
[7]
  Toxic dose: 0.16 mg/kg/day
[8]
  NBT (%): 80* %
  NSE (%): 78* %
[9]
  mice died: about 50%
[10]
  NBT (%): 58* %
  NSE (%): 60* %
[11]
  DNA synthesis of TPA-stimulated mouse epidermis: remarkable inhibit
[12]; HHT 500 nM (control 5.0 ± 0.49)
  Apoptosis (%): 39.5 ± 4.1%
[13]; HHT concentration 10 ng/ml
  Inhibition (%) c-myc RNA: 70.5 ± 8.5%
[13]; HHT concentration 50 ng/ml
  Inhibition (%) c-myc RNA: 70.8 ± 8.9%
[14]; Gastric cancer cells treated by HHT (no drug: 35)
  Frequency of p^53 mutations (%): 5%
[14]; p^53 mutations, Gastric cancer cells treated by HHT
  Inhibition T/C (%): 14.3 ± 1.5%
[15]; HHT concentration 10 ng/ml
  Inhibition (%) c-myb RNA: 65.0 ± 5.7%
[15]; HHT concentration 50 ng/ml
  Inhibition (%) c-myb RNA: 67.7 ± 6.8%
[16]
  Caspase-3 activity: 150.5 ± 16
[17]
  Methylation (%): 23.8^b %
[18]
  LD50: 3.17 ± 0.19 mg/kg
[19]
  Inhibition (%): 75.6 ± 8.0%
[20]
  Inhibition (%): 78.5 ± 7.9%

B1: APO-2L: also called TRAIL, has been shown to induce apoptosis of variety of cancer cell types (protein, UniProt P50591 1-281, looked up)
Tumor necrosis factor ligand …: MAMMEVQGGPSLGQTCVLIVIFTVLLQSLCVAVTYVYFTNELKQMQDKYSKSGIACFLKEDDSYWDPNDEESMNSPCWQVKWQLRQLVRKMILRTSEETISTVQEKQQNISPLVRERGPQRVAAHITGTRGRSNTLSSPNSKNEKALGRKINSWESSRSGHSFLSNLHLRNGELVIHEKGFYYIYSQTYFRFQEEIKENTKNDKQMVQYIYKYTSYPDPILLMKSARNSCWSKDAEYGLYSIYQGGIFELKENDRIFVSVTNEHLIDMDHEASFFGAFLVG
[12]; APO-2L (control 5.0 ± 0.49)
  Apoptosis (%): 20.8 ± 2.0%
